Laboratory results reported in patent US20250312352A1, “GLP-1R MODULATING COMPOUNDS” (Gilead Sciences, Inc., priority 2021, published 2025).

These compounds were tested against T1, GLP-1R (Homo sapiens, UniProt P43220) (assay: GLP-1R activation cAMP assay (Assay 1 or Assay 2)). Conditions: cAMP increase in CHO cells stably expressing GLP-1R; compounds run on one of the two cAMP assays.
T1 construct: host or cells: CHO cells
T1 sequence (P43220 24-463): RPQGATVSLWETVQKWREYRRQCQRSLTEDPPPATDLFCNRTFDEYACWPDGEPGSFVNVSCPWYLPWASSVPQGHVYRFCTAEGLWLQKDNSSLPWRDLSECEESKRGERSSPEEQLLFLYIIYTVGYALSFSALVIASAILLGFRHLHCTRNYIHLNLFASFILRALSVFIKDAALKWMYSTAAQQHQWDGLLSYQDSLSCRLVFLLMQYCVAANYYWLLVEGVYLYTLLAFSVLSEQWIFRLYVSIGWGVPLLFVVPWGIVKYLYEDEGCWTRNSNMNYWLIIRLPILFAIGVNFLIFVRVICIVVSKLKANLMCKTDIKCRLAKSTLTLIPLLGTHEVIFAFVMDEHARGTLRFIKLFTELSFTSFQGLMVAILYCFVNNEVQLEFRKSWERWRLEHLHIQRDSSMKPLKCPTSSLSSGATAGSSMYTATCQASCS
Type: cell-based
How it was run: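 CHO cells stably expressing human GLP-1R were incubated 1 h in HBSS/20 mM HEPES/0.1% BSA, then exposed to 10-point agonist dilutions for 30 min at 37 °C. cAMP increase was measured with an HTRF Gs dynamic kit; EC50 from sigmoidal fit of response versus log concentration.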
`O=C(O)c1ccc2nc(Cc3cc(F)c(-c4cccc(OCc5cnc(C(=O)NC6CCC6)cc5F)n4)cc3F)n(C[C@@H]3CCO3)c2c1` [Example 246, (S)-2-(4-(6-((6-(cyclobutylcarbamoyl)-4-fluoropyridin-3-yl)methoxy)pyridin-2-yl)-2,5-difluorobenzyl)-1-(oxetan-2-ylmethyl)-1H-benzo[d]imidazole-6-carboxylic acid] was tested, and the EC50 was 0.57 nM.
Compound `O=C(O)c1ccc2nc(Cc3cc(F)c(-c4cccc(OCc5cnc(C(=O)NC6COC6)cc5F)n4)cc3F)n(C[C@@H]3CCO3)c2c1` [Example 247, (S)-2-(2,5-difluoro-4-(6-((4-fluoro-6-(oxetan-3-ylcarbamoyl)pyridin-3-yl)methoxy)pyridin-2-yl)benzyl)-1-(oxetan-2-ylmethyl)-1H-benzo[d]imidazole-6-carboxylic acid] has an EC50 of 0.25 nM.
`NC(=O)c1ccc(COc2cccc(-c3cc(F)c(Cc4nc5ccc(C(=O)O)cc5n4C[C@@H]4CCO4)cc3F)n2)nc1` [Example 248, 2-[[4-[6-[(5-carbamoyl-2-pyridyl)methoxy]-2-pyridyl]-2,5-difluoro-phenyl]methyl]-3-[[(2S)-oxetan-2-yl]methyl]benzimidazole-5-carboxylic acid] showed an EC50 of 5.61 nM.
With `COCCn1c(Cc2cc(F)c(-c3cccc(OCc4ccc(C(=O)NC5CC5)cc4)n3)cc2F)nc2ccc(C(=O)O)cc21` [Example 249, 2-[[4-[6-[[4-(cyclopropylcarbamoyl)phenyl]methoxy]-2-pyridyl]-2,5-difluoro-phenyl]methyl]-3-(2-methoxyethyl)benzimidazole-5-carboxylic acid] the EC50 was 36.1 nM.
`COCCn1c(Cc2cc(F)c(-c3cccc(OCc4ccc(-n5cnc(C6CC6)n5)nc4)n3)cc2F)nc2ccc(C(=O)O)cc21` [Example 250, 2-(4-(6-((6-(3-cyclopropyl-1H-1,2,4-triazol-1-yl)pyridin-3-yl)methoxy)pyridin-2-yl)-2,5-difluorobenzyl)-1-(2-methoxyethyl)-1H-benzo[d]imidazole-6-carboxylic acid] was tested, and the EC50 was 22.6 nM.
`COCCn1c(Cc2cc(F)c(-c3cccc(OCc4ccc(C#CC5CN(C(C)=O)C5)cc4F)n3)cc2F)nc2ccc(C(=O)O)cc21` [Example 251, 2-[[4-[6-[[4-[2-(1-acetylazetidin-3-yl)ethynyl]-2-fluoro-phenyl]methoxy]-2-pyridyl]-2,5-difluoro-phenyl]methyl]-3-(2-methoxyethyl)benzimidazole-5-carboxylic acid] gave an EC50 of 0.89 nM.
`CC1(C)COC[C@H]1n1c(Cc2cc(F)c(-c3ccc(F)c(OCc4ncc(C(F)(F)F)s4)n3)cc2F)nc2c(F)cc(C(=O)O)cc21` [Example 252, 2-[[2,5-difluoro-4-[5-fluoro-6-[[5-(trifluoromethyl)thiazol-2-yl]methoxy]-2-pyridyl]phenyl]methyl]-3-[(3S)-4,4-dimethyltetrahydrofuran-3-yl]-7-fluoro-benzimidazole-5-carboxylic acid] gave an EC50 of 0.075 nM.
Work on `CC1(C)COC[C@H]1n1c(Cc2cc(F)c(-c3cccc(OCc4ncc(Cl)s4)n3)cc2F)nc2ccc(C(=O)O)cc21` [Example 254, (S)-2-(4-(6-((5-chlorothiazol-2-yl)methoxy)pyridin-2-yl)-2,5-difluorobenzyl)-1-(4,4-dimethyltetrahydrofuran-3-yl)-1H-benzo[d]imidazole-6-carboxylic acid] yielded an EC50 of 0.374 nM.
For `CC1(C)COC[C@H]1n1c(Cc2cc(F)c(-c3ccc(F)c(OCc4ncc(Cl)s4)n3)cc2F)nc2ccc(C(=O)O)cc21` [Example 255, (S)-2-(4-(6-((5-chlorothiazol-2-yl)methoxy)-5-fluoropyridin-2-yl)-2,5-difluorobenzyl)-1-(4,4-dimethyltetrahydrofuran-3-yl)-1H-benzo[d]imidazole-6-carboxylic acid], the EC50 was 0.366 nM.
`CCOc1nnc(COc2nc(-c3cc(F)c(Cc4nc5ccc(C(=O)O)cc5n4CC4(CF)CC4)cc3F)ccc2F)s1` [Example 256, 2-(4-(6-((5-ethoxy-1,3,4-thiadiazol-2-yl)methoxy)-5-fluoropyridin-2-yl)-2,5-difluorobenzyl)-1-((1-(fluoromethyl)cyclopropyl)methyl)-1H-benzo[d]imidazole-6-carboxylic acid] showed an EC50 of 0.443 nM.
Compound `Cc1cc(Cc2nc3ccc(C(=O)O)cc3n2[C@@H]2COCC2(C)C)c(F)cc1-c1cccc(OCc2ncc(Cl)s2)n1` [Example 257, (S)-2-(4-(6-((5-chlorothiazol-2-yl)methoxy)pyridin-2-yl)-2-fluoro-5-methylbenzyl)-1-(4,4-dimethyltetrahydrofuran-3-yl)-1H-benzo[d]imidazole-6-carboxylic acid] has an EC50 of 0.583 nM.
For `COc1nnc(COc2nc(-c3cc(F)c(Cc4nc5ccc(C(=O)O)cc5n4[C@@H]4COCC4(C)C)cc3C)ccc2F)s1` [Example 258, (S)-1-(4,4-dimethyltetrahydrofuran-3-yl)-2-(2-fluoro-4-(5-fluoro-6-((5-methoxy-1,3,4-thiadiazol-2-yl)methoxy)pyridin-2-yl)-5-methylbenzyl)-1H-benzo[d]imidazole-6-carboxylic acid], the EC50 was 0.483 nM.
For `CCOc1nnc(COc2cccc(-c3cc(F)c(Cc4nc5ccc(C(=O)O)cc5n4[C@@H]4COCC4(C)C)cc3C)c2)s1` [Example 259, (S)-1-(4,4-dimethyltetrahydrofuran-3-yl)-2-((3′-((5-ethoxy-1,3,4-thiadiazol-2-yl)methoxy)-5-fluoro-2-methyl-[1,1′-biphenyl]-4-yl)methyl)-1H-benzo[d]imidazole-6-carboxylic acid], the EC50 was 0.577 nM.
`CCOc1nnc(COc2cc(-c3cc(F)c(Cc4nc5ccc(C(=O)O)cc5n4[C@@H]4COCC4(C)C)cc3C)ccc2F)s1` [Example 260, (S)-1-(4,4-dimethyltetrahydrofuran-3-yl)-2-((3′-((5-ethoxy-1,3,4-thiadiazol-2-yl)methoxy)-4′,5-difluoro-2-methyl-[1,1′-biphenyl]-4-yl)methyl)-1H-benzo[d]imidazole-6-carboxylic acid] gave an EC50 of 0.254 nM.
Compound `COc1nnc(COc2cccc(-c3cc(F)c(Cc4nc5ccc(C(=O)O)cc5n4[C@@H]4COCC4(C)C)cc3C)n2)s1` [Example 261, (S)-1-(4,4-dimethyltetrahydrofuran-3-yl)-2-(2-fluoro-4-(6-((5-methoxy-1,3,4-thiadiazol-2-yl)methoxy)pyridin-2-yl)-5-methylbenzyl)-1H-benzo[d]imidazole-6-carboxylic acid] has an EC50 of 0.044 nM.
`CCOc1nnc(COc2nc(-c3cc(F)c(Cc4nc5ccc(C(=O)O)cc5n4[C@@H]4COCC4(C)C)cc3C)ccc2F)s1` [Example 262, (S)-1-(4,4-dimethyltetrahydrofuran-3-yl)-2-(4-(6-((5-ethoxy-1,3,4-thiadiazol-2-yl)methoxy)-5-fluoropyridin-2-yl)-2-fluoro-5-methylbenzyl)-1H-benzo[d]imidazole-6-carboxylic acid] was tested, and the EC50 was 0.134 nM.
In the case of `CCOc1nnc(COc2cccc(-c3cc(F)c(Cc4nc5ccc(C(=O)O)cc5n4[C@@H]4COCC4(C)C)c(F)c3F)n2)s1` [Example 263, (S)-1-(4,4-dimethyltetrahydrofuran-3-yl)-2-(4-(6-((5-ethoxy-1,3,4-thiadiazol-2-yl)methoxy)pyridin-2-yl)-2,3,6-trifluorobenzyl)-1H-benzo[d]imidazole-6-carboxylic acid], the EC50 is reported as 0.131 nM.
